According to patent publication US11053204B2, “Pyrimidinyloxy benzene derivatives as herbicides” (FMC Corporation, priority 2015, dated 2021):

What was measured:
Experiment in all cases: Test C postemergence, plant response rating
Assay type in all cases: in vivo
[1] = test system: blackgrass (Alopecurus myosuroides); conditions: for Plant response rating, Blackgrass: scale 0 to 100; for Blackgrass plant response rating: scale 0 to 100 (0 no effect, 100 complete control)
Outline: (§1)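 Preemergence: seeds sown in loam–sand blend or silt loam and sprayed with test chemicals in a non-phytotoxic surfactant-containing solvent. Postemergence: potted plants at 2–18 cm (1–4-leaf stage) sprayed with the same formulation. After 13–15 d in greenhouse, visual rating versus controls on 0 (no effect) to 100 (complete control) scale.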

[2] = test system: chickweed (common chickweed, Stellaria media); conditions: for Chickweed plant response rating: scale 0 to 100 (0 no effect, 100 complete control)
Outline: as §1

corn (Zea mays) = conditions: for Corn plant response rating: scale 0 to 100 (0 no effect, 100 complete control)
Outline: as §1

[3] = test system: foxtail, giant (giant foxtail, Setaria faberii); conditions: for Foxtail, Giant plant response rating: scale 0 to 100 (0 no effect, 100 complete control)
Outline: as §1

[4] = test system: galium (catchweed bedstraw, Galium aparine); conditions: for Galium plant response rating: scale 0 to 100 (0 no effect, 100 complete control)
Outline: as §1

kochia (Kochia scoparia) = conditions: for Kochia plant response rating: scale 0 to 100 (0 no effect, 100 complete control)
Outline: as §1

[5] = test system: lambsquarters (Chenopodium album); conditions: for Lambsquarters plant response rating: scale 0 to 100 (0 no effect, 100 complete control)
Outline: as §1

[6] = test system: morningglory (Ipomoea coccinea); conditions: for Morningglory plant response rating: scale 0 to 100 (0 no effect, 100 complete control)
Outline: as §1

[7] = test system: nutsedge, yellow (yellow nutsedge, Cyperus esculentus); conditions: for Nutsedge, Yellow plant response rating: scale 0 to 100 (0 no effect, 100 complete control)
Outline: as §1

[8] = test system: oat, wild (wild oat Avena fatua); conditions: for Oat, Wild plant response rating: scale 0 to 100 (0 no effect, 100 complete control)
Outline: as §1

[9] = test system: oilseed rape (Brassica napus); conditions: for Oilseed Rape plant response rating: scale 0 to 100 (0 no effect, 100 complete control)
Outline: as §1

[10] = test system: ragweed (common ragweed, Ambrosia elatior); conditions: for Ragweed plant response rating: scale 0 to 100 (0 no effect, 100 complete control)
Outline: as §1

soybean (Glycine max) = conditions: for Soybean plant response rating: scale 0 to 100 (0 no effect, 100 complete control)
Outline: as §1

[11] = test system: velvetleaf (Abutilon theophrasti)
Outline: as §1

[12] = test system: waterhemp (common waterhemp, Amaranthus rudis)
Outline: as §1

[13] = test system: wheat (winter wheat, Triticum aestivum)
Outline: as §1

[14] = 125 g ai/ha, scale 0 to 100 (0 no effect, 100 complete control)

## O=C(CCC(F)(F)F)c1c(Br)cccc1Oc1ncc(Cl)cn1 [Compound 92]
[1]; 16 g ai/ha
  Plant response rating, Blackgrass: 5
[1]; 31 g ai/ha
  Plant response rating, Blackgrass: 10
[1]; 62 g ai/ha
  Blackgrass plant response rating: 5
[1]; 125 g ai/ha
  Blackgrass plant response rating: 20
[2]; 16 g ai/ha, scale of 0 to 100
  Plant response rating, Chickweed: 100
[2]; 31 g ai/ha, scale 0 to 100
  Plant response rating, Chickweed: 100
[2]; 62 g ai/ha
  Chickweed plant response rating: 100
[2]; 125 g ai/ha
  Chickweed plant response rating: 100
Corn (Zea mays); 16 g ai/ha, scale of 0 to 100
  Plant response rating, Corn: 10
Corn (Zea mays); 31 g ai/ha, scale 0 to 100
  Plant response rating, Corn: 20
Corn (Zea mays); 62 g ai/ha
  Corn plant response rating: 15
Corn (Zea mays); 125 g ai/ha
  Corn plant response rating: 20
[3]; 16 g ai/ha, scale of 0 to 100
  Plant response rating, Foxtail, Giant: 10
[3]; 31 g ai/ha, scale 0 to 100
  Plant response rating, Foxtail, Giant: 20
[3]; 62 g ai/ha
  Foxtail, Giant plant response rating: 25
[3]; 125 g ai/ha
  Foxtail, Giant plant response rating: 50
[4]; 16 g ai/ha, scale of 0 to 100
  Plant response rating, Galium: 80
[4]; 31 g ai/ha, scale 0 to 100
  Plant response rating, Galium: 85
[4]; 62 g ai/ha
  Galium plant response rating: 100
[4]; 125 g ai/ha
  Galium plant response rating: 100
Kochia (Kochia scoparia); 16 g ai/ha, scale of 0 to 100
  Plant response rating, Kochia: 100
Kochia (Kochia scoparia); 31 g ai/ha, scale 0 to 100
  Plant response rating, Kochia: 100
Kochia (Kochia scoparia); 62 g ai/ha
  Kochia plant response rating: 100
Kochia (Kochia scoparia); 125 g ai/ha
  Kochia plant response rating: 100
[5]; 16 g ai/ha, scale of 0 to 100
  Plant response rating, Lambsquarters: 40
[5]; 31 g ai/ha, scale 0 to 100
  Plant response rating, Lambsquarters: 60
[5]; 62 g ai/ha
  Lambsquarters plant response rating: 50
[5]; 125 g ai/ha
  Lambsquarters plant response rating: 85
[6]; 16 g ai/ha, scale of 0 to 100
  Plant response rating, Morningglory: 20
[6]; 31 g ai/ha, scale 0 to 100
  Plant response rating, Morningglory: 85
[6]; 62 g ai/ha
  Morningglory plant response rating: 65
[6]; 125 g ai/ha
  Morningglory plant response rating: 85
[7]; 16 g ai/ha, scale of 0 to 100
  Plant response rating, Nutsedge, Yellow: 0
[7]; 31 g ai/ha, scale 0 to 100
  Plant response rating, Nutsedge, Yellow: 10
[7]; 62 g ai/ha
  Nutsedge, Yellow plant response rating: 10
[7]; 125 g ai/ha
  Nutsedge, Yellow plant response rating: 20
[8]; 16 g ai/ha, scale of 0 to 100
  Plant response rating, Oat, Wild: 5
[8]; 31 g ai/ha, scale 0 to 100
  Plant response rating, Oat, Wild: 5
[8]; 62 g ai/ha
  Oat, Wild plant response rating: 5
[8]; 125 g ai/ha
  Oat, Wild plant response rating: 5
[9]; 16 g ai/ha, scale of 0 to 100
  Plant response rating, Oilseed Rape: 5
[9]; 31 g ai/ha, scale 0 to 100
  Plant response rating, Oilseed Rape: 50
[9]; 62 g ai/ha
  Oilseed Rape plant response rating: 50
[9]; 125 g ai/ha
  Oilseed Rape plant response rating: 70
[10]; 16 g ai/ha, scale of 0 to 100
  Plant response rating, Ragweed: 35
[10]; 31 g ai/ha, scale 0 to 100
  Plant response rating, Ragweed: 40
[10]; 62 g ai/ha
  Ragweed plant response rating: 60
[10]; 125 g ai/ha
  Ragweed plant response rating: 70
Soybean (Glycine max); 16 g ai/ha, scale of 0 to 100
  Plant response rating, Soybean: 30
Soybean (Glycine max); 31 g ai/ha, scale 0 to 100
  Plant response rating, Soybean: 40
Soybean (Glycine max); 62 g ai/ha
  Soybean plant response rating: 70
Soybean (Glycine max); 125 g ai/ha
  Soybean plant response rating: 75
[11]; 16 g ai/ha, scale of 0 to 100
  Plant response rating, Velvetleaf: 35
[11]; 31 g ai/ha, scale 0 to 100
  Plant response rating, Velvetleaf: 50
[11]; [14]
  Velvetleaf plant response rating: 85
[12]; 16 g ai/ha, scale of 0 to 100
  Plant response rating, Waterhemp: 80
[12]; 31 g ai/ha, scale 0 to 100
  Plant response rating, Waterhemp: 85
[12]; [14]
  Waterhemp plant response rating: 100
[13]; 16 g ai/ha, scale of 0 to 100
  Plant response rating, Wheat: 0
[13]; 31 g ai/ha, scale 0 to 100
  Plant response rating, Wheat: 0
[13]; [14]
  Wheat plant response rating: 10
